Like-named read-outs stand apart in the source and are kept apart here.

Experimental findings from US12129246B1, “Hydroquinazoline derivatives for the treatment of a disease or disorder” (Novartis AG, priority 2023, dated 2024) are described below.

The target in one assay is monkey NPR1 (Macaca fascicularis, UniProt A0A7N9DBT9). In words: Cellular cGMP production assay, monkey NPR1 expressing CHO-K1 cells (CisBio HTRF). The assay is classed as cell-based. The following applies: for Monkey NPR1 Amax (% of ANP): maximum cGMP production as percentage of the maximum cGMP produced with ANP. The method, boiled down: (§1)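 12-pt 3-fold dose-response, top 30 μM; buffer PBS + 0.1% BSA + 1 mM IBMX (PDE inhibitor); 30 min, 37 °C. Lyse, add cGMP-d2 + anti-cGMP-cryptate, 1 h RT. Ex 317 / em 665 nm; Delta F converted to cGMP via calibrator standard curve.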

The target in the next assay is T1, human NPR1 (Homo sapiens, UniProt P16066).
T1 construct: host or cells: CHO-K1
T1 sequence (P16066 33-1061): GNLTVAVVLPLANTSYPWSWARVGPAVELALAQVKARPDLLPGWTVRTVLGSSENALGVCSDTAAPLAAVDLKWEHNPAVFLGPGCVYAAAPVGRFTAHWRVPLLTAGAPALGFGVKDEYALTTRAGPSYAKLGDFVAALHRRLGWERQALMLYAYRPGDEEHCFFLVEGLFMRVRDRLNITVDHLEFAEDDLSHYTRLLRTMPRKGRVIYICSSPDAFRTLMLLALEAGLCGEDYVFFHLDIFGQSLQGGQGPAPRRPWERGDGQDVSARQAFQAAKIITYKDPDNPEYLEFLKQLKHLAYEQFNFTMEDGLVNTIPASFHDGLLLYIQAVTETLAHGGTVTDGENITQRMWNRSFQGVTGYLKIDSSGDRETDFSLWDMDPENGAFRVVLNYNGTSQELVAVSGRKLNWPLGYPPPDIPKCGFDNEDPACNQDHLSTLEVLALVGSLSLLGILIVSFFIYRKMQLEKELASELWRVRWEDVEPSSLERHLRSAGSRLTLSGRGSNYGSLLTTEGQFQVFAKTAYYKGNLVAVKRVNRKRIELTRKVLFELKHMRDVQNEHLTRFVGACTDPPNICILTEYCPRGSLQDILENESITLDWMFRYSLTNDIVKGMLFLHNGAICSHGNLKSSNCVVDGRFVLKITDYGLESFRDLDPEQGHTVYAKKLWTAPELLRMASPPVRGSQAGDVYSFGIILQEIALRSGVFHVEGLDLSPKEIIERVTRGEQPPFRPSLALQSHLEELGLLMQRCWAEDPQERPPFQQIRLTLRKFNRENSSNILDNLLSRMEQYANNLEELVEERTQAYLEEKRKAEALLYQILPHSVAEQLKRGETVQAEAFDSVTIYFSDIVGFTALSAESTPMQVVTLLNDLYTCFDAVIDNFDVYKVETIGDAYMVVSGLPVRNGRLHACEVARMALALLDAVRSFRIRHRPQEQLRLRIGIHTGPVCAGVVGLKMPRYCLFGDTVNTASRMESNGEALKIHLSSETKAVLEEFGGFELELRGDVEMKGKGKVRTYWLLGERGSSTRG
In words: Cellular cGMP production assay, human NPR1 expressing CHO-K1 cells (CisBio HTRF). The assay is classed as cell-based. The following applies: for AC50: cGMP production, 30 min at 37° C., 12-point dose-response from 30 μM; for Human NPR1 Amax (% of ANP): maximum cGMP production as percentage of the maximum cGMP produced with ANP. The method, boiled down: as §1
(Time-resolved FRET reads energy transfer from a long-lived donor to a nearby acceptor.)

Setting [1] is: cGMP production, monkey NPR1 CHO-K1 cells, 30 min at 37° C., 12-point dose-response from 30 μM, read-out: Monkey NPR1 AC50.

Sequence of monkey NPR1 (A0A7N9DBT9 entry or part of it): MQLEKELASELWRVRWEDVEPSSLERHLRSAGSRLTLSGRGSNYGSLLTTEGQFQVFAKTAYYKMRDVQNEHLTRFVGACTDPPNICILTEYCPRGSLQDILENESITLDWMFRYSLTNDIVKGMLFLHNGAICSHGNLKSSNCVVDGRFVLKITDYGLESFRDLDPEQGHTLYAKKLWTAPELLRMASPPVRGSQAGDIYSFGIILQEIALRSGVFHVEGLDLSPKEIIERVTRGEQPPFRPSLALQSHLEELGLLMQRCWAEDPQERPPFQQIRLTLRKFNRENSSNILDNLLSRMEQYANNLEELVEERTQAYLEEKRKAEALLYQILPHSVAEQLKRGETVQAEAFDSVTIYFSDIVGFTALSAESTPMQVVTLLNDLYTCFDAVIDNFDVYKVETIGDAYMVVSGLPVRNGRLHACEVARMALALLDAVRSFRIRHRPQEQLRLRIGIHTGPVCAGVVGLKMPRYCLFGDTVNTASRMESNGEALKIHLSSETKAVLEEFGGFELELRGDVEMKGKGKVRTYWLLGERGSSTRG

On to `CC[C@@H](Nc1nc2c(c(N[C@@H](CN3C[C@H](C)C[C@H](C)C3)c3cnn(C)c3)n1)C[C@H](c1ccccc1)CC2)[C@H]1CC[C@H](C(=O)O)CC1` [Compound 61, (1R,4r)-4-((R)-1-(((R)-4-(((R)-2-((3S,5R)-3,5-dimethylpiperidin-1-yl)-1-(1-methyl-1H-pyrazol-4-yl)ethyl)amino)-6-phenyl-5,6,7,8-tetrahydroquinazolin-2-yl)amino)propyl)cyclohexane-1-carboxylic acid], for which the half-maximal activity concentration (AC50) at monkey NPR1 (setting [1]) was determined as 122 nM. Also, the “Monkey NPR1 Amax (% of ANP)” value on monkey NPR1 (monkey NPR1 CHO-K1 cells) is listed as 102.127 % of ANP. Besides, at human NPR1, the AC50 was 207 nM and the “Human NPR1 Amax (% of ANP)” value is recorded as 104.236 % of ANP.
With `CC[C@H]([C@H]1CC[C@H](C(=O)O)CC1)N(C)c1nc2c(c(N[C@@H](CN3CC4CCC3C4)c3cnn(C)c3)n1)C[C@H](c1ccccc1)CC2` (stereo partly drawn) [Compound 128, (1R,4r)-4-((1R)-1-(((6R)-4-(((1R)-2-(2-azabicyclo[2.2.1]heptan-2-yl)-1-(1-methyl-1H-pyrazol-4-yl)ethyl)amino)-6-phenyl-5,6,7,8-tetrahydroquinazolin-2-yl)(methyl)amino)propyl)cyclohexane-1-carboxylic acid], the AC50 at monkey NPR1 (setting [1]) was 416 nM; at human NPR1, 629 nM. In addition, the “Monkey NPR1 Amax (% of ANP)” value on monkey NPR1 (monkey NPR1 CHO-K1 cells) is reported as 95.117 % of ANP. Moreover, the “Human NPR1 Amax (% of ANP)” value at human NPR1 is listed as 105.430 % of ANP.
`CC[C@@H](N(C)c1nc2c(c(N[C@@H](CN3CCC[C@H](CF)C3)c3cnn(C)c3)n1)C[C@](C)(c1ccccc1)CC2)C12CC(C(=O)O)(C1)C2` [Compound 12, 3-((R)-1-(((R)-4-(((R)-2-((S)-3-(fluoromethyl)piperidin-1-yl)-1-(1-methyl-1H-pyrazol-4-yl)ethyl)amino)-6-methyl-6-phenyl-5,6,7,8-tetrahydroquinazolin-2-yl)(methyl)amino)propyl)bicyclo[1.1.1]pentane-1-carboxylic acid]: the AC50 on monkey NPR1 (setting [1]) was 73 nM. The “Monkey NPR1 Amax (% of ANP)” value at monkey NPR1 (monkey NPR1 CHO-K1 cells) is on record as 95.099 % of ANP. On human NPR1, the AC50 was 94 nM and the “Human NPR1 Amax (% of ANP)” value was 96.068 % of ANP.
`CC[C@@H](Nc1nc2c(c(N[C@@H](CN3C4CCCC3CCC4)c3cnn(C)c3)n1)C[C@H](c1cccc(F)c1)CC2)[C@H]1CC[C@H](C(=O)O)CC1` [Compound 15, (1R,4r)-4-((R)-1-(((R)-4-(((R)-2-((1S,5S)-9-azabicyclo[3.3.1]nonan-9-yl)-1-(1-methyl-1H-pyrazol-4-yl)ethyl)amino)-6-(3-fluorophenyl)-5,6,7,8-tetrahydroquinazolin-2-yl)amino)propyl)cyclohexane-1-carboxylic acid] yielded an AC50 on monkey NPR1 of 92 nM. At monkey NPR1 (monkey NPR1 CHO-K1 cells), the “Monkey NPR1 Amax (% of ANP)” value is given as 109.175 % of ANP. In addition, on human NPR1, the AC50 worked out at 102 nM and the “Human NPR1 Amax (% of ANP)” value is recorded as 106.001 % of ANP.
In the case of `CC[C@@H](Nc1nc2c(c(N[C@@H](CN3CCC[C@@H](C)C3)c3cnn(C)c3)n1)C[C@H](c1ccccc1)CC2)[C@H]1CC[C@H](C(=O)O)CC1` [Compound 84, (1R,4r)-4-((R)-1-(((R)-4-(((R)-1-(1-methyl-1H-pyrazol-4-yl)-2-((R)-3-methylpiperidin-1-yl)ethyl)amino)-6-phenyl-5,6,7,8-tetrahydroquinazolin-2-yl)amino)propyl)cyclohexane-1-carboxylic acid], the concentration at half-maximal activity (AC50) on monkey NPR1 (setting [1]) came to 191 nM. Further, the “Monkey NPR1 Amax (% of ANP)” value at monkey NPR1 (monkey NPR1 CHO-K1 cells) is listed as 102.883 % of ANP. Moreover, at human NPR1, the AC50 came out at 284 nM and the “Human NPR1 Amax (% of ANP)” value is 100.223 % of ANP.
Compound `CC[C@@H](Nc1nc2c(c(N[C@@H](CN3C4CCCC3CCC4)c3cnn(CC)c3)n1)C[C@H](c1cccc(F)c1)CC2)[C@H]1CC[C@H](C(=O)O)CC1` [Compound 17, (1R,4r)-4-((R)-1-(((R)-4-(((R)-2-((1S,5S)-9-azabicyclo[3.3.1]nonan-9-yl)-1-(1-ethyl-1H-pyrazol-4-yl)ethyl)amino)-6-(3-fluorophenyl)-5,6,7,8-tetrahydroquinazolin-2-yl)amino)propyl)cyclohexane-1-carboxylic acid] had an AC50 at monkey NPR1 of 68 nM. Moreover, the “Monkey NPR1 Amax (% of ANP)” value on monkey NPR1 (monkey NPR1 CHO-K1 cells) is on record as 99.682 % of ANP. Moreover, at human NPR1, the AC50 amounted to 105 nM and the “Human NPR1 Amax (% of ANP)” value is 97.959 % of ANP.
For `CC[C@@H](Nc1nc2c(c(N[C@@H](CN3CCC[C@H](C)C3)c3scnc3C)n1)C[C@H](c1ccccc1)CC2)[C@H]1CC[C@H](C(=O)O)CC1` [Compound 73, (1R,4r)-4-((R)-1-(((R)-4-(((S)-2-((S)-3-methylpiperidin-1-yl)-1-(4-methylthiazol-5-yl)ethyl)amino)-6-phenyl-5,6,7,8-tetrahydroquinazolin-2-yl)amino)propyl)cyclohexane-1-carboxylic acid], the AC50 at monkey NPR1 (setting [1]) was determined as 172 nM. Also, the “Monkey NPR1 Amax (% of ANP)” value at monkey NPR1 (monkey NPR1 CHO-K1 cells) is given as 99.527 % of ANP. Moreover, at human NPR1, the concentration at half-maximal activity (AC50) is 245 nM and the “Human NPR1 Amax (% of ANP)” value is reported as 94.290 % of ANP.
As to `CC[C@H]([C@H]1CC[C@H](C(=O)O)CC1)N(C)c1nc2c(c(N[C@@H](CN3CCC[C@H](O)C3)c3cnn(C)c3)n1)C[C@H](c1ccccc1)CC2` [Compound 129, (1R,4r)-4-((R)-1-(((R)-4-(((R)-2-((S)-3-hydroxypiperidin-1-yl)-1-(1-methyl-1H-pyrazol-4-yl)ethyl)amino)-6-phenyl-5,6,7,8-tetrahydroquinazolin-2-yl)(methyl)amino)propyl)cyclohexane-1-carboxylic acid], the concentration at half-maximal activity (AC50) at monkey NPR1 (setting [1]) is 362 nM. Also, at monkey NPR1 (monkey NPR1 CHO-K1 cells), the “Monkey NPR1 Amax (% of ANP)” value is 91.227 % of ANP. On human NPR1, half-maximal activity (AC50) was put at 646 nM and the “Human NPR1 Amax (% of ANP)” value is given as 93.751 % of ANP.
`CC[C@H]([C@H]1CC[C@H](C(=O)O)CC1)N(C)c1nc2c(c(N[C@@H](CN3CCC[C@H](C)C3)c3cnn(C)c3)n1)C[C@](C)(c1ccccc1)CC2` [Compound 7, (1R,4r)-4-((R)-1-(methyl((R)-6-methyl-4-(((R)-1-(1-methyl-1H-pyrazol-4-yl)-2-((S)-3-methylpiperidin-1-yl)ethyl)amino)-6-phenyl-5,6,7,8-tetrahydroquinazolin-2-yl)amino)propyl)cyclohexane-1-carboxylic acid]: the AC50 was determined as 50 nM at monkey NPR1 (setting [1]) and 80 nM on human NPR1. Also, at monkey NPR1 (monkey NPR1 CHO-K1 cells), the “Monkey NPR1 Amax (% of ANP)” value was 102.341 % of ANP. For the same compound, the “Human NPR1 Amax (% of ANP)” value at human NPR1 was 97.105 % of ANP.
As to `CC[C@@H](Nc1nc2c(c(N[C@@H](CN3C4CCCC3CCC4)c3cnn(C(C)C)c3)n1)C[C@H](c1ccccc1)CC2)[C@H]1CC[C@H](C(=O)O)CC1` [Compound 132, (1R,4r)-4-((R)-1-(((R)-4-(((R)-2-((1S,5S)-9-azabicyclo[3.3.1]nonan-9-yl)-1-(1-isopropyl-1H-pyrazol-4-yl)ethyl)amino)-6-phenyl-5,6,7,8-tetrahydroquinazolin-2-yl)amino)propyl)cyclohexane-1-carboxylic acid], the figures for the AC50 on monkey NPR1 and on human NPR1 were 620 nM and 757 nM, respectively. The “Monkey NPR1 Amax (% of ANP)” value at monkey NPR1 (monkey NPR1 CHO-K1 cells) is reported as 103.231 % of ANP. Further, on human NPR1, the “Human NPR1 Amax (% of ANP)” value is 97.440 % of ANP.

As a reminder, the AC50 is the midpoint of the concentration-response curve, whichever way the signal moves.
